From US8058306B2, “Phenyl pyrrole aminoguanidine derivatives” (Action Pharma A/S, priority 2006, dated 2011) come the findings set out here.

This test has as its target T1, murine MC1 receptor (Mus musculus, UniProt Q01727).
T1 construct: murine B16-F1 melanoma cells expressing MC1, but not other MC receptors, were used; endogenous in cells; host or cells: murine B16-F1 melanoma cells
Briefly: [125I]-NDP-MSH radio-ligand binding, MC1 receptor (B16-F1 melanoma cells). The note with it: 90 min/22° C. The method, then: Determination of binding affinities for MC receptors was performed by [^125I]-[Nle4,D-Phe7]α-MSH ([^125I]-NDP-MSH) radio-ligand binding. In short, murine B16-F1 melanoma cells expressing MC1, but not other MC receptors, were used for binding affinity studies against the murine MC1 receptor (Siegrist et al.; 1988, J. Recept. Res., 8(1-4):323-43). For human MC3, MC4 and MC5 receptor affinities human recombinant CHO cells were used (Schioth et al. 1997, Neuropeptides 31:565-71, 1997). Cells were suspended in HEPES buffer and by use of microwell plates radio-ligands, as well as test compound, in the concentration range of 10^−10 to 10^−6 were added. After incubation at 37° C. (22° C. for the MC1 receptor assay) separation of bound and free [^125I]-NDP-MSH was done by multiple washings with buffer.
The results were expressed as a percent of control specific binding obtained in the presence of the test compounds. The IC50 values (concentration causing a half-maximal inhibition of control specific binding) and Hill coefficients (nH) were determined by non-linear regression analysis of the competition curves using Hill equation curve fitting. The inhibition constants (Ki) were calculated from the Cheng Prusoff equation (Ki=IC50/(1+(L/KD)), where L=concentration of radio-ligand in the assay, and KD=affinity of the radio-ligand for the receptor).

T1 sequence (Q01727 whole entry): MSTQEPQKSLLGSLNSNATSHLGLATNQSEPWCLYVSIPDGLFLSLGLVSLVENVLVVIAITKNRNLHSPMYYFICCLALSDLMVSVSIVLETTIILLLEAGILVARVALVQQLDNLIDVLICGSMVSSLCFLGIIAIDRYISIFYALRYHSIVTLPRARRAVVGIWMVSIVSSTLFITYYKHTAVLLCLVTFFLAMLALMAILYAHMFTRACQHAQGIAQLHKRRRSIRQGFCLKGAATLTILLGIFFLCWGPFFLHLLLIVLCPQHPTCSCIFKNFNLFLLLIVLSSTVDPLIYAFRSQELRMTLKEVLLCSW

With `N=C(N)NN=CC=Cc1cccn1-c1ccc(Cl)cc1` [Compound 1, [1-(4-chlorophenyl)-1H-pyrrol-2-yl-allylideneamino]guanidinium acetate], the affinity, expressed as Ki, was 88 nM. This lies in the double-digit nanomolar range.

On to `N=C(N)NN=CC=Cc1cccn1-c1ccccc1[N+](=O)[O-]` [Compound 2, [1-(2-nitrophenyl)-1H-pyrrol-2-yl-allylideneamino]guanidinium acetate], for which the affinity corresponds to a Ki of 360 nM. In the case of `N=C(N)NN=CC=Cc1cccn1-c1ccccc1Br` [Compound 3, [1-(2-bromophenyl)-1H-pyrrol-2-yl-allylideneamino]guanidinium acetate] it was 2.6 nM.
